Test results as given in ChEMBL document CHEMBL6182868, “Structural simplification of quaternary benzophenanthridine alkaloids generating a candidate for the treatment of non-small cell lung cancer” (Eur J Med Chem, 2025).
One block for each compound: values may come before it. Active and inactive are the calls of the source. The calls are words filed in the database; no cut-off is given here.

Assays:
[1] = Inhibition of TrxR (unknown origin) incubated for 2 hrs in presence of NADPH by DTNB assay; parameters: species or system Homo sapiens
[2] = tested on: A549; test: Cytotoxicity against human A549 cells incubated for 24 to 48 hrs by MTT assay; format: functional, cell-based
[3] = tested on: HeLa; test: Cytotoxicity against human HeLa cells incubated for 24 to 48 hrs by MTT assay; format: functional, cell-based
[4] = tested on: HepG2; test: Cytotoxicity against human HepG2 cells incubated for 24 to 48 hrs by MTT assay; format: functional, cell-based
[5] = species: Homo sapiens; test: Inhibition of TrxR (unknown origin) assessed as remaining activity at 50 uM incubated for 2 hrs in presence of NADPH by DTNB assay relative to control
[6] = tested on: A549; test: Antitumor activity against ip dosed human A549 cells xenografted in male BALB/c nude mouse assessed as tumor weight administered and measured every 3 days for 21 days; format: functional, organism-based; conditions: dose 3-6 mg/kg, time 21.0 day
[7] = GSH reactivity in TE buffer assessed as remaining concentration of compound incubated 1 to 4 hrs at 37 degreeC by HPLC analysis; format: physicochemical; conditions: TE buffer with GSH, time 1-4 hrs, read-out: Stability
[8] = Toxicity in male BALB/c nude mouse xenografted with human A549 cells assessed as effect on kidney at 3 to 6 mg/kg, ip administered for 21 days; format: organism-based; conditions: in vivo, 504 h, dose 3-6 mg/kg, time 21 day
[9] = tested on: A549; test: Induction of apoptosis in human A549 cells assessed as increase in caspase 3 activation incubated for 24 hrs by colorimetric assay; format: functional, cell-based; conditions: dose 1-5 µM
[10] = Toxicity in male BALB/c nude mouse xenografted with human A549 cells assessed as effect on body weight 3 to 6 mg/kg, ip administered and measured every 3 days for 21 days; format: organism-based; conditions: in vivo, 504 h, dose 3-6 mg/kg, time 21 day
[11] = tested on: A549; test: Induction of oxidative stress in human A549 cells assessed as decrease in GSH/GSSG ratio at 1 to 5 uM incubated for 24 hrs by microplate reader analysis; format: functional, cell-based; conditions: dose 1-5 µM
[12] = Toxicity in male BALB/c nude mouse xenografted with human A549 cells assessed as effect on lung at 3 to 6 mg/kg, ip administered for 21 days; format: organism-based; conditions: in vivo, 504 h, dose 3-6 mg/kg, time 21 day
[13] = Cys reactivity in TE buffer assessed as remaining concentration of compound incubated 1 to 4 hrs at 37 degreeC by HPLC analysis; format: physicochemical; conditions: TE buffer with cysteine, time 1-4 hrs, read-out: Activity
[14] = Tmax in Sprague-Dawley rat at 10 mg/kg, po measured up to 24 hrs by LC-MS/MS analysis; format: ADME, organism-based; conditions: in vivo
[15] = tested on: A549; test: Induction of oxidative stress in human A549 cells assessed as increase in GSSG levels at 1 to 5 uM incubated for 24 hrs by microplate reader analysis; format: functional, cell-based; conditions: dose 1-5 µM
[16] = Cytotoxicity against human LO2 cells assessed as cell viability at 1 to 20 uM incubated for 24 hrs by MTT assay; format: toxicity, cell-based, L02
[17] = tested on: HeLa; test: Cytotoxicity against human HeLa cells harboring shNT-negative control assessed as cell viability at 1 to 5 uM incubated for 48 hrs by MTT assay; format: functional, cell-based; conditions: dose 1-5 µM
[18] = tested on: A549; test: Induction of apoptosis in human A549 cells assessed as decrease in Bcl-2 protein expression at 2 to 5 uM incubated for 24 hrs by Western blot analysis; format: functional, cell-based; conditions: dose 2-5 µM
[19] = tested on: A549; test: Induction of apoptosis in human A549 cells assessed as small and condensed nuclei at 1 to 5 uM incubated for 24 hrs by Hoechst 33342 staining based fluorescence microscopic analysis; format: functional, cell-based; conditions: dose 1-5 µM
[20] = tested on: HeLa; test: Cytotoxicity against human HeLa cells harboring shTrxR1 assessed as cell viability at 1 to 5 uM incubated for 48 hrs by MTT assay; format: functional, cell-based; conditions: dose 1-5 µM
[21] = tested on: A549; test: Induction of oxidative stress in human A549 cells assessed as decrease in intracellular total thiol levels at 5 uM incubated for 24 hrs by DTNB titration based microplate reader analysis relative to control; format: functional; parameters: scale not given: the % may be the effect or the level left
[22] = tested on: A549; test: Induction of apoptosis in human A549 cells assessed as increase in blue fluorescence at 1 to 5 uM incubated for 24 hrs by Hoechst 33342 staining based fluorescence microscopic analysis; format: functional, cell-based; conditions: dose 1-5 µM
[23] = tested on: A549; test: Induction of ROS accumulation in human A549 cells assessed as increase in fluorescence intensity incubated for 6 hrs by DCFH-DA/DHE staining based analysis; format: functional, cell-based; conditions: dose 1-5 µM
[24] = Toxicity in male BALB/c nude mouse xenografted with human A549 cells assessed as effect on liver at 3 to 6 mg/kg, ip administered for 21 days; format: organism-based; conditions: in vivo, 504 h, dose 3-6 mg/kg, time 21 day
[25] = tested on: A549; test: Inhibition of colony formation in human A549 cells assessed as decrease in number of colonies incubated for 1 day in 5% CO2 at 37 degC followed by replacement with fresh culture medium for every 2 days and measured after 10 days by crystal violet staining based analysis; format: functional, cell-based; conditions: dose 0.25-0.5 µM
[26] = tested on: A549; test: Induction of apoptosis in human A549 cells assessed as conversion of caspase 3 to cleaved caspase 3 at 2 to 5 uM incubated for 24 hrs by Western blot analysis; format: functional, cell-based; conditions: dose 2-5 µM
[27] = species: Homo sapiens; test: Inhibition of TrxR U498C mutant (unknown origin) incubated for 2 hrs in presence of NADPH by DTNB assay
[28] = Toxicity in male BALB/c nude mouse xenografted with human A549 cells assessed as effect on heart at 3 to 6 mg/kg, ip administered for 21 days; format: organism-based; conditions: in vivo, 504 h, dose 3-6 mg/kg, time 21 day
[29] = Half life in Sprague-Dawley rat at 10 mg/kg, po measured up to 24 hrs by LC-MS/MS analysis; format: ADME, organism-based; conditions: in vivo
[30] = tested on: A549; test: Cytotoxicity against human A549 cells assessed as cell viability at 1 to 20 uM cotreated with BSO incubated for 24 hrs by MTT assay; format: functional, cell-based; conditions: dose 1-20 µM
[31] = Inhibition of TrxR in human A549 cells incubated for 24 hrs by endpoint insulin reduction assay; format: cell-based
[32] = tested on: A549; test: Induction of apoptosis in human A549 cells assessed as increase in Bax protein expression at 2 to 5 uM incubated for 24 hrs by Western blot analysis; format: functional, cell-based; conditions: dose 2-5 µM
[33] = tested on: A549; test: Inhibition of TrxR in human A549 cells assessed as decrease in green fluorescence intensity incubated for 24 hrs by TRFS-green staining based fluorescent microscopic analysis; format: cell-based; conditions: dose 1-5 µM
[34] = Toxicity in male BALB/c nude mouse xenografted with human A549 cells assessed as effect on spleen at 3 to 6 mg/kg, ip administered for 21 days; format: organism-based; conditions: in vivo, 504 h, dose 3-6 mg/kg, time 21 day
[35] = tested on: A549; test: Induction of oxidative stress in human A549 cells assessed as activation of ERK pathway by measuring change in protein level incubated for 24 hrs; format: functional, cell-based
[36] = tested on: A549; test: Antitumor activity against human A549 cells xenografted in male BALB/c nude mouse assessed as tumor growth inhibition at 3 to 6 mg/kg, ip administrated for every 3 days and measured after 21 days relative to control; format: functional; conditions: dose 3-6 mg/kg, time 21 day
[37] = tested on: A549; test: Antitumor activity against ip dosed human A549 cells xenografted in male BALB/c nude mouse assessed as tumor size administered and measured every 3 days for 21 days; format: functional, organism-based; conditions: dose 3-6 mg/kg, time 21.0 day
[38] = AUC (0 to 24 hrs) in Sprague-Dawley rat at 10 mg/kg, po measured up to 24 hrs by LC-MS/MS analysis; format: ADME, organism-based; conditions: in vivo
[39] = tested on: A549; test: Induction of apoptosis in human A549 cells assessed as apoptotic cell count incubated for 6 hrs by annexin V-FITC and PI staining based flow cytometric analysis; format: functional; conditions: dose 1-5 µM
[40] = tested on: A549; test: Cytotoxicity against human A549 cells assessed as cell viability at 1 to 20 uM cotreated with NAC incubated for 24 hrs by MTT assay; format: functional, cell-based; conditions: dose 1-20 µM

IC50 [1]: > 50 µM
SMILES: COc1ccc2ncc3ccccc3c2c1
IC50 [2]: > 50 µM
IC50 [3]: > 50 µM
IC50 [4]: > 50 µM

SMILES: COc1ccc2c(c[n+](C)c3c4cc5c(cc4ccc23)OCO5)c1OC [CHELERYTHRINE CHLORIDE]
IC50 [1]: 14.9 µM
IC50 [2]: 8 µM
IC50 [3]: 9.6 µM
IC50 [4]: 8.3 µM

IC50 [1]: > 50 µM
SMILES: c1ccc2c(c1)cnc1ccccc12 [PHENANTHRIDINE]
IC50 [2]: > 50 µM
IC50 [3]: > 50 µM
IC50 [4]: > 50 µM

IC50 [1]: > 50 µM
SMILES: COc1cc2c(c(OC)c1OC)c1ccccc1c[n+]2C
IC50 [2]: 16.9 µM
IC50 [3]: 22.5 µM
IC50 [4]: 21.9 µM

IC50 [1]: > 50 µM
SMILES: COc1ccc2c(c1)c1ccccc1c[n+]2C
IC50 [2]: 17.6 µM
IC50 [3]: 19.5 µM
IC50 [4]: 19.5 µM

Activity [5]: 93%
SMILES: c1ccc2c(c1)cnc1c3ccccc3ccc21
IC50 [2]: > 50 µM
IC50 [3]: > 50 µM
IC50 [4]: > 50 µM

IC50 [1]: > 50 µM
SMILES: Fc1ccc2ncc3ccccc3c2c1
IC50 [2]: > 50 µM
IC50 [3]: > 50 µM
IC50 [4]: > 50 µM

remaining at 50 µM [7]: 94%
remaining at 50 µM [13]: 102%
Tmax [14]: 2 h
IC50 [1]: 10.2 µM
inhibition [27]: Active; Minimal Inhibition Was Observed
half-life [29]: 2.58 h
IC50 [31]: 3.94 µM
AUC [38]: 1060 ng·h/mL
SMILES: COc1cc(OC)c2c3ccccc3c[n+](C)c2c1.[I-]
Activity [6]: Dose-dependent-effect
Activity [8]: Non-toxic
Activity [9]: Dose-dependent-effect
Activity [10]: Non-toxic
Activity [11]: inactive
Activity [12]: Non-toxic
Activity [15]: Active
IC50 at 24 h [16]: > 20 µM
Activity [17]: Active
Activity [18]: Dose-dependent-effect
Activity [19]: Active
IC50 [2]: 2.1 µM
Activity [20]: Active; Compound Exhibited Increased Sensitivity Compared To Hela-Shnt Cells (Negative Control)
Activity [21]: ~50%
Activity [22]: Active
Activity [23]: Dose-dependent-effect
Activity [24]: Non-toxic
inhibition [25]: Dose-dependent-effect
Activity [26]: Dose-dependent-effect
IC50 [3]: 3.4 µM
Activity [28]: Non-toxic
Activity [30]: Active
Activity [32]: Dose-dependent-effect
inhibition [33]: Dose-dependent-effect
Activity [34]: Non-toxic
IC50 [4]: 5 µM
Activity [35]: Active
TGI [36]: 65.49%
Activity [37]: Dose-dependent-effect
Activity [39]: Dose-dependent-effect
Activity [40]: inactive

IC50 [1]: > 50 µM
SMILES: C[n+]1cc2ccccc2c2cc(F)ccc21
IC50 [2]: > 50 µM
IC50 [3]: 31.4 µM
IC50 [4]: 34.7 µM

IC50 [1]: > 50 µM
SMILES: C[n+]1cc2ccccc2c2ccccc21
IC50 [2]: 35.8 µM
IC50 [3]: 28 µM
IC50 [4]: 32.3 µM

Activity [5]: 97%
SMILES: CN1Cc2ccccc2-c2ccc3ccccc3c21
IC50 [2]: > 50 µM
IC50 [3]: > 50 µM
IC50 [4]: > 50 µM

IC50 [1]: > 50 µM
SMILES: COc1cc(OC)c2c(c1)ncc1ccccc12
IC50 [2]: > 50 µM
IC50 [3]: > 50 µM
IC50 [4]: > 50 µM

IC50 [1]: > 50 µM
SMILES: Cc1ccc2ncc3ccccc3c2c1
IC50 [2]: > 50 µM
IC50 [3]: > 50 µM
IC50 [4]: > 50 µM

IC50 [1]: > 50 µM
SMILES: COc1cc2ncc3ccccc3c2c(OC)c1OC
IC50 [2]: > 50 µM
IC50 [3]: > 50 µM
IC50 [4]: > 50 µM

Activity [5]: 64%
SMILES: C[n+]1cc2ccccc2c2ccc3ccccc3c21
IC50 [2]: 7.3 µM
IC50 [3]: 5.2 µM
IC50 [4]: 5.4 µM

IC50 [1]: 23 µM
SMILES: C[n+]1cc2c3c(ccc2c2ccc4cc5c(cc4c21)OCO5)OCO3 [SANGUINARIUM CHLORIDE]
IC50 [2]: 6.9 µM
IC50 [3]: 2.4 µM
IC50 [4]: 2.6 µM

IC50 [1]: 38.2 µM
IC50 [31]: 12.2 µM
SMILES: COc1cc2c[n+](C)c3c4cc5c(cc4ccc3c2cc1OC)OCO5 [NITIDINE CHLORIDE]
IC50 [2]: 4 µM
IC50 [3]: 1.7 µM
IC50 [4]: 1.8 µM

IC50 [1]: > 50 µM
SMILES: Cc1ccc2c(c1)c1ccccc1c[n+]2C
IC50 [2]: 18.5 µM
IC50 [3]: 12.3 µM
IC50 [4]: 15 µM
